Source: ChEMBL document CHEMBL1201862, “PubChem BioAssay data set” (2004)
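How tested: cells in 96-well plates exposed to compound for 48 hours at five concentrations. GI50: concentration for 50% inhibition of growth.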 Activity calls are given as the source filed them. Cut-off read from the data, not from the text of the source: active = GI50 up to about 1.1 µM and inactive = higher.

Legend:
Assay in all cases: NCI-60 cell line screen, 48 h
NCI-H23 = tested on: NCI-H23
SK-MEL-28 = tested on: SK-MEL-28
PC-3 = tested on: PC-3
SR = tested on: SR
HOP-62 = tested on: HOP-62
ACHN = tested on: ACHN
UACC-257 = tested on: UACC-257
OVCAR-4 = tested on: OVCAR-4
NCI/ADR-RES = tested on: NCI/ADR-RES
NCI-H460 = tested on: NCI-H460
SK-OV-3 = tested on: SK-OV-3
MDA-MB-231 = tested on: MDA-MB-231
HCT-116 = tested on: HCT-116
MDA-MB-435 = tested on: MDA-MB-435
Hs-578T = tested on: Hs-578T
HCT-15 = tested on: HCT-15
OVCAR-3 = tested on: OVCAR-3
SK-MEL-2 = tested on: SK-MEL-2

| Structure (SMILES) | GI50 (NCI-H23) | GI50 (SK-MEL-28) | GI50 (PC-3) | GI50 (SR) | GI50 (HOP-62) | GI50 (ACHN) | GI50 (UACC-257) | GI50 (OVCAR-4) | GI50 (NCI/ADR-RES) | GI50 (NCI-H460) | GI50 (SK-OV-3) | GI50 (MDA-MB-231) | GI50 (HCT-116) | GI50 (MDA-MB-435) | GI50 (Hs-578T) | GI50 (HCT-15) [µM] | GI50 (OVCAR-3) | GI50 (SK-MEL-2) |
| --- | --- | --- | --- | --- | --- | --- | --- | --- | --- | --- | --- | --- | --- | --- | --- | --- | --- | --- |
| CCN(CC)CCC(=O)c1ccc(Cl)c(Cl)c1 | > 10 µM (inactive) | 16.6 µM (inactive) | 32.1 µM (inactive) | 24.3 µM (inactive) | > 100 µM (inactive) | 76.9 µM (inactive) | 46.7 µM (inactive) | 47.4 µM (inactive) | 34.1 µM (inactive) | > 100 µM (inactive) | > 100 µM (inactive) | > 10 µM (inactive) | 27.5 µM (inactive) | 17.1 µM (inactive) | 17.1 µM (inactive) | 34.6 | > 10 µM (inactive) | – |
| O=C1OC(OCC#CCOC2OC(=O)C(Cl)=C2Cl)C(Cl)=C1Cl (centres undefined) | 15.6 µM (inactive) | 15.3 µM (inactive) | 13.7 µM (inactive) | 2 µM (inactive) | 13.6 µM (inactive) | 16.2 µM (inactive) | 15 µM (inactive) | – | 19.5 µM (inactive) | 23.6 µM (inactive) | – | – | 10.2 µM (inactive) | 12.2 µM (inactive) | 13.2 µM (inactive) | 5.85 | 13.9 µM (inactive) | 15.8 µM (inactive) |
| O=C1CCc2cc3c(cc21)C(C(=O)O)CC3 (centres undefined) | > 100 µM (inactive) | > 100 µM (inactive) | > 100 µM (inactive) | > 100 µM (inactive) | > 100 µM (inactive) | > 100 µM (inactive) | > 100 µM (inactive) | > 100 µM (inactive) | > 100 µM (inactive) | > 100 µM (inactive) | > 100 µM (inactive) | > 100 µM (inactive) | > 100 µM (inactive) | – | > 100 µM (inactive) | > 100 | – | > 100 µM (inactive) |
| COc1ccc(/C=C2\OC(=O)C(Cl)=C2c2ccc(OC)cc2)cc1 | – | > 100 µM (inactive) | 63 µM (inactive) | > 100 µM (inactive) | 28 µM (inactive) | > 100 µM (inactive) | > 100 µM (inactive) | 86.9 µM (inactive) | – | > 100 µM (inactive) | > 100 µM (inactive) | > 100 µM (inactive) | – | > 100 µM (inactive) | > 100 µM (inactive) | > 100 | > 100 µM (inactive) | > 100 µM (inactive) |
| O=C(/C=C1\N=C(c2ccccc2)N(c2ccc3c(c2)Sc2cc(N4C(=O)/C(=C/C(=O)/C=C/c5ccccc5)N=C4c4ccccc4)ccc2N3)C1=O)/C=C/c1ccccc1 | 50.4 µM (inactive) | 65.2 µM (inactive) | 19.5 µM (inactive) | – | 48.8 µM (inactive) | > 100 µM (inactive) | 27.4 µM (inactive) | 20.8 µM (inactive) | 41.6 µM (inactive) | 58.7 µM (inactive) | 18.3 µM (inactive) | 38 µM (inactive) | > 100 µM (inactive) | 22 µM (inactive) | 33.2 µM (inactive) | > 100 | 24.9 µM (inactive) | 18.4 µM (inactive) |
| Cc1nn(C(=O)Cc2ccccc2)c2c1C(c1ccccc1[N+](=O)[O-])SC(=N)N2 (centres undefined) | > 100 µM (inactive) | > 100 µM (inactive) | > 100 µM (inactive) | > 100 µM (inactive) | > 100 µM (inactive) | > 100 µM (inactive) | > 100 µM (inactive) | – | – | > 100 µM (inactive) | > 100 µM (inactive) | > 100 µM (inactive) | > 100 µM (inactive) | > 100 µM (inactive) | > 100 µM (inactive) | > 100 | – | – |
| CCOC(=O)c1c(NC(=O)c2ccccc2)c(C#N)c2n1CCCCC2 | > 100 µM (inactive) | > 100 µM (inactive) | > 100 µM (inactive) | > 100 µM (inactive) | > 100 µM (inactive) | > 100 µM (inactive) | > 100 µM (inactive) | > 100 µM (inactive) | > 100 µM (inactive) | > 100 µM (inactive) | > 100 µM (inactive) | > 100 µM (inactive) | > 100 µM (inactive) | > 100 µM (inactive) | > 100 µM (inactive) | > 100 | – | – |
| c1ccc2c(OCC3CO3)ccc(OCC3CO3)c2c1 (centres undefined) | 2.51 µM (inactive) | 9.98 µM (inactive) | 4.76 µM (inactive) | 0.343 µM (active) | 3.03 µM (inactive) | 1.89 µM (inactive) | 7.14 µM (inactive) | 7.05 µM (inactive) | 4.18 µM (inactive) | 3.42 µM (inactive) | 12.6 µM (inactive) | 10.5 µM (inactive) | 1.36 µM (inactive) | 2.44 µM (inactive) | 5.32 µM (inactive) | 3.85 | 1.38 µM (inactive) | – |
| CCCSC1=N/C(=C\c2ccco2)C(=O)N1 | > 100 µM (inactive) | > 100 µM (inactive) | > 100 µM (inactive) | – | > 100 µM (inactive) | > 100 µM (inactive) | > 100 µM (inactive) | > 100 µM (inactive) | > 100 µM (inactive) | > 100 µM (inactive) | > 100 µM (inactive) | > 100 µM (inactive) | > 100 µM (inactive) | > 100 µM (inactive) | > 100 µM (inactive) | > 100 | > 100 µM (inactive) | > 100 µM (inactive) |
